Measured values from patent US10233156B2, “9-membered fused ring derivative” (Shionogi & Co., Ltd., priority 2015, dated 2019).

How the values were obtained:
[1] = target: recombinant human ACC2 (Homo sapiens (Human), UniProt O00763); experiment: Measurement of inhibitory activity on human ACC2 (MALDI-TOF MS, conversion of acetyl CoA to malonyl CoA); assay type: biochemical; settings: recombinant human ACC2, room temperature, 1 to 3 hours
Text: After a cDNA encoding human ACC2 (27 amino acid residue to 2458 amino acid residues from the N-terminus) was cloned from human kidney cDNA library (Clontech), human ACC2 gene containing His-tag sequence at 5′ terminus was inserted into pFastBac1 (Invitrogen). Recombinant baculovirus was generated using Bac-to-Bac baculovirus expression system (Invitrogen) according to the manufacturer's protocol. To express human ACC2, Sf-9 cells were infected with recombinant baculovirus. After infected cells were disrupted, the filtrated lysate was subjected to Ni-affinity chromatography and anion-exchange chromatography. The fractions containing human ACC2 protein were pooled as recombinant human ACC2 solution.
(§1) Recombinant human ACC1 and recombinant human ACC2, which were prepared by the method mentioned above, were preincubated with assay buffer solution (50 mM HEPES-KOH (pH 7.4), 10 mM magnesium chloride, 6-10 mM potassium citrate, 4 mM reduced form of glutathione, 1.5 mg/ml bovine serum albumin) for one hour. Then, 0.2 μL of each this invention compound solution (in DMSO) were dispensed to 384-well microplate, 5 μL of the preincubated enzyme solution and 5 μL of substrate solution (50 mM HEPES-KOH (pH 7.4), 1 mM ATP, 0.8 mM acetyl CoA and 25-50 mM potassium bicarbonate) were added to microplate. After centrifugation and shaking, the reaction mixtures were incubated in a humidified box at room temperature for 1 to 3 hours. After the incubation, the enzyme reactions were stopped by the addition of EDTA. Then, after the samples were cocrystallized with CHCA (α-cyano-4-hydroxy cinnamic acid) matrices on MALDI target plate, by using the matrix assist laser […] time-of-flight mass spectrometer (MALDI-TOF MS), samples were measured in reflector negative mode. Deprotonated ions of acetyl CoA (AcCoA) of substrate and malonyl CoA (MalCoA) of the reaction product were detected, then, the conversion rates of acetyl CoA to malonyl CoA was calculated by the intensity of [MalCoA-H]−/(Intensity of [MalCoA-H].+Intensity of [AcCoA-H]—) using each signal strength. […] In addition, potassium citrate concentrations in assay buffer solution, potassium hydrogen carbonate concentrations in substrate solution and incubation time were adjusted by each lot of enzyme.

[2] = target: recombinant human ACC1 (Homo sapiens (Human), UniProt Q13085); experiment: Measurement of inhibitory activity on human ACC1 (MALDI-TOF MS, conversion of acetyl CoA to malonyl CoA); assay type: biochemical; settings: recombinant human ACC1, room temperature, 1 to 3 hours
Text: After a cDNA encoding human ACC1 (1 amino acid residue to 2346 amino acid residues from the N-terminus) was cloned from human liver cDNA library (BioChain), human ACC1 gene containing myc-tag and His-tag sequence at 3′ terminus was inserted into pIEXBAC3 (Novagen). Recombinant baculovirus was generated using FlashBACGOLD system (Oxford Expression Technologies) according to the manufacturer's protocol. To express human ACC1, Sf-9 cells were infected with recombinant baculovirus. After infected cells were disrupted, the filtrated lysate was subjected to Ni-affinity chromatography and anion-exchange chromatography. The fractions containing human ACC1 protein were pooled as recombinant human ACC1 solution.
as §1

Chain of recombinant human ACC2 (O00763 27-2458): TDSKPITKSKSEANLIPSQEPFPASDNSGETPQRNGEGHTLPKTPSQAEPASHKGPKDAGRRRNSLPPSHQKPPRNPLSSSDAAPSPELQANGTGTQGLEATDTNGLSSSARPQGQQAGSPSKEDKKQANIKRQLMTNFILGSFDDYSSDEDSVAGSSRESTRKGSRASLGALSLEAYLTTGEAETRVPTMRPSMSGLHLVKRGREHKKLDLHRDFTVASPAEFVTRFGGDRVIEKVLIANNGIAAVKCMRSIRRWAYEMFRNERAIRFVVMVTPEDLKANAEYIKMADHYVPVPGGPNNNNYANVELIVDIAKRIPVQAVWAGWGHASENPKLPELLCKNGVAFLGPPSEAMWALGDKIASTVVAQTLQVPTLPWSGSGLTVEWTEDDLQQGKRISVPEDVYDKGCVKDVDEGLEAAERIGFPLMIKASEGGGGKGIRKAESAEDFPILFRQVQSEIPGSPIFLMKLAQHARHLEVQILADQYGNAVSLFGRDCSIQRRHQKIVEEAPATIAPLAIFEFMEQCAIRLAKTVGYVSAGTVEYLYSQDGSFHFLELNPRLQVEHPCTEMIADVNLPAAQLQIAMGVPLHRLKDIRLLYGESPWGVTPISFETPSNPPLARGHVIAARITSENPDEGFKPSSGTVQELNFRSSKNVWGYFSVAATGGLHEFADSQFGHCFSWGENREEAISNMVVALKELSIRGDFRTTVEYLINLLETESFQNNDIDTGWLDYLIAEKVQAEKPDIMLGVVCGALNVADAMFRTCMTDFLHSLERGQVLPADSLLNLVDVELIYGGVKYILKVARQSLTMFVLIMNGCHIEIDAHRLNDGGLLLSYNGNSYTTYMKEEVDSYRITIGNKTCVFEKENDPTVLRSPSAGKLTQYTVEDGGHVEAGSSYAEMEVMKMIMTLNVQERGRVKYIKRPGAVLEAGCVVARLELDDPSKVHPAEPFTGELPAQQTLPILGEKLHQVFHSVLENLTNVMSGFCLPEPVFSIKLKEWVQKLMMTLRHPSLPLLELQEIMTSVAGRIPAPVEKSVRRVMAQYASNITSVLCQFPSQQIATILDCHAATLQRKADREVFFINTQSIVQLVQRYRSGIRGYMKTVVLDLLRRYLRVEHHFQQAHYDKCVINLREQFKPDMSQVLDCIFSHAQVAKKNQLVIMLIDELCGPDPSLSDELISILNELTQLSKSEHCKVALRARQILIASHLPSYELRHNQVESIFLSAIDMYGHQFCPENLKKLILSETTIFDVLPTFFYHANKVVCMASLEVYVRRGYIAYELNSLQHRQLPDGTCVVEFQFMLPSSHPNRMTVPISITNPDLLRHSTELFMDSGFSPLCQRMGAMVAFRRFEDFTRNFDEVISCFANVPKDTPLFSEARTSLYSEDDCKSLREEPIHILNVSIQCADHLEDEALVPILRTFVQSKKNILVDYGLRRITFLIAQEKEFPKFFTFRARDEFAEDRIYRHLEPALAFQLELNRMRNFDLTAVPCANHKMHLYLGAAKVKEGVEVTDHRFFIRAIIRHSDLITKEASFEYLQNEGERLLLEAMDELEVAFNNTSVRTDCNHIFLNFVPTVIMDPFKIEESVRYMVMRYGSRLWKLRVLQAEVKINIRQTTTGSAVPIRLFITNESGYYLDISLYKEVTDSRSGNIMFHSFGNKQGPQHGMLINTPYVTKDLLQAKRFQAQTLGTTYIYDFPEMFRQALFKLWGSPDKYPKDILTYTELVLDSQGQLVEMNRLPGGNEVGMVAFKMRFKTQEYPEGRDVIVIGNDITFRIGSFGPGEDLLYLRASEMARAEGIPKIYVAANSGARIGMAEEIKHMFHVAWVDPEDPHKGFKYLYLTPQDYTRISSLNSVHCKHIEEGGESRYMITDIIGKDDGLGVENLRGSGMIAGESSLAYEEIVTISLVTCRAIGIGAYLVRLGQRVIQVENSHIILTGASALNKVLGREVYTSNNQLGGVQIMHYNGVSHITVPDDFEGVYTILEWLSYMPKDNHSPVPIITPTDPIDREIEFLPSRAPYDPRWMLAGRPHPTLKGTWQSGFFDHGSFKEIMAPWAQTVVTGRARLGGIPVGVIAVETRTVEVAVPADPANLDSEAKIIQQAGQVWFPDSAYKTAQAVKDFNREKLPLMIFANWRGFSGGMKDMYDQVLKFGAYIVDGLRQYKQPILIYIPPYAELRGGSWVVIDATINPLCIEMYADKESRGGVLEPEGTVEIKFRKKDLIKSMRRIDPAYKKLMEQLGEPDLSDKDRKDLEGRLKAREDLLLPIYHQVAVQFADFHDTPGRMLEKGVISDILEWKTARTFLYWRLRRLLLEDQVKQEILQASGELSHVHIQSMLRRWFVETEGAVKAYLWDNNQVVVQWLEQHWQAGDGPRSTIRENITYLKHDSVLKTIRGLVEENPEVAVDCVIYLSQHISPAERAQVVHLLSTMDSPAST

Structure (SMILES) | IC50 [1] [nM] | IC50 [2] [nM]
Cn1c(O[C@H]2CC[C@H](OC[C@H](CF)NC(=O)CC#N)CC2)nc2c(F)cc(OCC(F)F)c(F)c21 [Example I-227] | 44 | –
C[C@@H](CO[C@H]1CC[C@H](Oc2nc3c(Cl)cc(OC4CC4)cc3n2C)CC1)NC(N)=O [Example I-222] | 17 | –
C[C@@H](CO[C@H]1CC[C@H](Oc2nc3c(F)cc(OCC(F)F)c(Cl)c3n2C)CC1)NS(N)(=O)=O [Example I-248] | 160 | > 100000
CC(=O)N[C@@H](C)CO[C@H]1CC[C@H](Oc2nc3cc(Cl)c(F)cc3n2C)CC1 [Example I-211] | 120 | –
CC(=O)N[C@@H](C)/C=C(\F)[C@@H]1CC[C@@H](Oc2nc3c(F)cc(OCC(F)F)c(F)c3n2C)CO1 [Example I-250] | 21 | –
CC(=O)N[C@@H](C)CO[C@H]1CC[C@H](Oc2nc3c(F)cc(OCC(F)F)c(F)c3n2C)CC1 [Example I-208] | 8.7 | –
CC(=O)N[C@@H](C)CO[C@H]1CC[C@H](Oc2nc3c(F)cc(OC4CC5(COC5)C4)c(F)c3n2C)CC1 [Example I-216] | 57 | –
CC(=O)N[C@@H](C)CO[C@H]1CC[C@H](Oc2nc3c(F)cc(OC(F)F)c(F)c3n2C)CC1 [Example I-231] | 10 | –
C[C@@H](CO[C@H]1CC[C@H](Oc2nc3ncc(OC4CC4)cc3n2C)CC1)NC(N)=O [Example I-204] | – | > 100000
CC(=O)N[C@@H](C)CC[C@H]1OC[C@H](Oc2nc3c(F)cc(OCC(F)F)c(F)c3n2C)C[C@@H]1F [Example I-196] | 10 | –
CC(=O)N[C@@H](C)CO[C@H]1CC[C@H](Oc2nc3cc(F)c(F)cc3n2C)CC1 [Example I-238] | 83 | –
CC(=O)N[C@@H](C)CC[C@H]1OC[C@H](Oc2nc3c(F)cc(OCC(F)F)c(F)c3n2C)CC1(F)F [Example I-228] | 13 | –
CC(=O)N[C@@H](C)CO[C@H]1CC[C@H](Oc2nc3cc(F)c(Cl)cc3n2C)CC1 [Example I-217] | 64 | –
CC(=O)N[C@@H](C)CC[C@H]1OC[C@H](Oc2nc3c(F)cc(OC4CC4)cc3n2C)CO1 [Example I-249] | 6.6 | –
CC(=O)N[C@@H](C)CO[C@H]1CC[C@H](Oc2nc3c(F)cc(OCC(C)(C)C#N)c(F)c3n2C)CC1 [Example I-244] | 26 | –
CC(=O)N[C@@H](CF)CO[C@H]1CC[C@H](Oc2nc3c(F)cc(OC4CC4)cc3n2C)CC1 [Example I-201] | 4.7 | –
CC(=O)N[C@@H](C)CO[C@H]1CC[C@H](Cc2nc3c(F)cc(OCC(F)F)c(F)c3n2C)CC1 [Example I-252] | – | > 100000

Structure (SMILES) | IC50 [1] [nM] | IC50 [2] [nM]
CC(=O)N[C@@H](C)CO[C@H]1CC[C@H](Oc2nc3c(F)c(F)c(OCC(F)F)c(F)c3n2C)CC1 [Example I-209] | 5.3 | –
CC(=O)N[C@@H](C)CO[C@H]1CC[C@H](Oc2nc3c(F)cc(OC4(C)COC4)c(F)c3n2C)CC1 [Example I-203] | 110 | –
C[C@@H](CO[C@H]1CC[C@H](Oc2nc3c(F)cc(OC4CC4)cc3n2C)CC1)NC(N)=O [Example I-243] | 5.6 | –
C[C@@H](CO[C@H]1CC[C@H](Oc2nc3cnc(OC4CC4)cc3n2C)CC1)NC(N)=O [Example I-229] | 600 | –
CC(=O)N[C@@H](C)CO[C@H]1CC[C@H](Oc2nc3ccc(OC4(C)CC4)cc3n2C)CC1 [Example I-202] | 17 | –
Cn1c(O[C@H]2CC[C@H](OC[C@H](CF)NC(=O)C3CC3)CC2)nc2c(F)cc(OCC(F)F)c(F)c21 [Example I-233] | 31 | > 100000
CC(=O)N[C@@H](C)CO[C@H]1CC[C@H](Oc2nc3c(F)cc(OCC4(F)COC4)c(F)c3n2C)CC1 [Example I-195] | 35 | –
C[C@@H](CO[C@H]1CC[C@H](Oc2nc3c(F)c(F)c(F)c(F)c3n2C)CC1)NC(N)=O [Example I-235] | 43 | –
COC(=O)N[C@@H](CF)CO[C@H]1CC[C@H](Oc2nc3c(F)cc(OCC(F)F)c(F)c3n2C)CC1 [Example I-239] | 30 | –
Cn1c(O[C@H]2CC[C@H](OC[C@H](CF)NC(=O)CO)CC2)nc2c(F)cc(OCC(F)F)c(F)c21 [Example I-245] | 53 | > 100000
CC(=O)N[C@@H](C)CO[C@H]1CC[C@@H](Cc2nc3c(F)cc(OCC(F)F)c(F)c3n2C)CC1 [Example I-251] | 100 | –
C[C@@H](CO[C@H]1CC[C@H](Oc2nc3c(F)cc(OCC(F)F)c(F)c3n2C)CC1)NS(N)(=O)=O [Example I-242] | 120 | > 100000
Cn1c(O[C@H]2CC[C@H](OC[C@H](CF)NC(N)=O)CC2)nc2c(F)cc(OCC(F)F)c(F)c21 [Example I-232] | 11 | –
CC(=O)N[C@H](C)C(F)(F)C[C@H]1CC[C@H](Oc2nc3c(F)cc(OCC(F)F)c(F)c3n2C)CO1 [Example I-220] | 180 | –
CC(=O)N[C@@H](CF)CO[C@H]1CC[C@H](Oc2nc3c(F)cc(OCC(F)F)c(Cl)c3n2C)CC1 [Example I-205] | 4.6 | –
Cn1c(O[C@H]2CC[C@H](OC[C@H](CF)NC(N)=O)CC2)nc2c(F)cc(OC3CC3)cc21 [Example I-213] | 8.9 | –
CC(=O)N[C@@H](C)C(F)(F)C[C@H]1CC[C@H](Oc2nc3c(F)cc(OCC(F)F)c(F)c3n2C)CO1 [Example I-214] | 12 | –

Second part, the compound after the results:

IC50 [1] [nM] | IC50 [2] [nM] | Structure (SMILES)
7.2 | – | CC(=O)N[C@@H](CF)CO[C@H]1CC[C@H](Oc2nc3cnc(OC4CC4)c(F)c3n2C)CC1 [Example I-210]
150 | – | CC(=O)N[C@@H](C)CO[C@H]1CC[C@H](Oc2nc3cnc(OC4CC4)cc3n2C)CC1 [Example I-224]
12 | – | CC(=O)N[C@@H](CF)CO[C@H]1CC[C@H](Oc2nc3c(C#N)cc(OC4CC4)c(F)c3n2C)CC1 [Example I-206]
17 | – | CC(=O)N[C@@H](C)CO[C@H]1CC[C@H](Oc2nc3cc(F)c(F)c(F)c3n2C)CC1 [Example I-215]
730 | > 100000 | CC(=O)N[C@@H](C)CO[C@H]1CC[C@H](Oc2nc3ncc(OC4CC4)cc3n2C)CC1 [Example I-199]
13 | – | CC(=O)N[C@@H](C)CO[C@H]1CC[C@H](Oc2nc3ccc(OC4CC4)nc3n2C)CC1 [Example I-234]
12 | – | CC(=O)N[C@@H](C)CO[C@H]1CC[C@H](Oc2nc3c(F)cc(OC4COC4)c(Cl)c3n2C)CC1 [Example I-219]
9.1 | – | CC(=O)N[C@@H](C)CO[C@H]1CC[C@H](Oc2nc3ccc(OC4CC4)cc3n2C)CC1 [Example I-221]
78 | – | CC(=O)N[C@@H](C)CO[C@H]1CC[C@H](Oc2nc3c(F)cc(O[C@H]4C[C@@H](O)C4)c(F)c3n2C)CC1 [Example I-246]
5.4 | – | CC(=O)N[C@@H](C)CO[C@H]1CC[C@H](Oc2nc3cc(F)c(OC4CC4)c(F)c3n2C)CC1 [Example I-207]
6.1 | – | CC(=O)N[C@@H](C)CO[C@H]1CC[C@H](Oc2nc3c(C#N)cc(OC4CCC4)c(F)c3n2C)CC1 [Example I-226]
13 | – | C[C@@H](CO[C@H]1CC[C@H](Oc2nc3ccc(OC4CC4)cc3n2C)CC1)NC(N)=O [Example I-197]
55 | – | CC(=O)N[C@@H](C)CO[C@H]1CC[C@H](Oc2nc3cc(F)c(OC4CC4)cc3n2C)CC1 [Example I-212]
120 | – | C[C@@H](CO[C@H]1CC[C@H](Oc2nc3cc(F)c(OC4CC4)cc3n2C)CC1)NC(N)=O [Example I-218]
9.5 | – | C[C@@H](CO[C@H]1CC[C@H](Oc2nc3cc(F)c(OC4CC4)c(F)c3n2C)CC1)NC(N)=O [Example I-241]
87 | – | CC(=O)N[C@@H](C)CO[C@H]1CC[C@H](Oc2nc3c(F)cc(O[C@H]4C[C@H](O)C4)c(F)c3n2C)CC1 [Example I-223]
5.3 | – | C[C@@H](CO[C@H]1CC[C@H](Oc2nc3ccc(OC4CC4)c(F)c3n2C)CC1)NC(N)=O [Example I-198]
33 | – | CC(=O)N[C@@H](C)CO[C@H]1CC[C@H](Oc2nc3c(C#N)cc(OC4CC4)cc3n2C)CC1 [Example I-225]
12 | – | C[C@@H](CO[C@H]1CC[C@H](Oc2nc3cnc(OC4CC4)c(F)c3n2C)CC1)NC(N)=O [Example I-237]
3.9 | – | CC(=O)N[C@@H](C)CO[C@H]1CC[C@H](Oc2nc3ccc(OC4CC4)c(F)c3n2C)CC1 [Example I-247]
44 | – | C[C@@H](CO[C@H]1CC[C@H](Oc2nc3ccc(OC4CC4)nc3n2C)CC1)NC(N)=O [Example I-240]
